Columns and labels:
[1] = target: T1, Induced myeloid leukemia cell differentiation protein Mcl-1 (Homo sapiens, UniProt Q07820); assay: Inhibition of FAM-labeled Bid BH3 peptide binding to human recombinant MCL1 by fluorescence polarization assay relative to control
[2] = target: T2, Apoptosis regulator Bcl-2 (Homo sapiens, UniProt P10415); assay: Inhibition of FAM-labeled Bid BH3 peptide binding to human recombinant BCL2 by fluorescence polarization assay relative to control
[3] = target: T1, Induced myeloid leukemia cell differentiation protein Mcl-1; assay: Inhibition of fluorescein-labeled Bid BH3 peptide (79 to 99 residues) binding to His-tagged MCL1 (171 to 327 residues) (unknown origin) expressed in Escherichia coli Bl21(DE3) cells incubated for 3 hrs by fluorescence polarization assay
[4] = target: T1, Induced myeloid leukemia cell differentiation protein Mcl-1; assay: Inhibition of FITC-labeled Bid BH3 peptide binding to human GST-tagged MCL1 lacking C-terminal transmembrane domain expressed in Escherichia coli XL-1 Blue cells preincubated for 10 mins followed by FITC-labeled Bid BH3 peptide addition measured after 20 mins by fluorescence polarization assay
[5] = target: T2, Apoptosis regulator Bcl-2; assay: Inhibition of FITC-labeled Bid BH3 peptide binding to human GST-tagged BCL2 lacking C-terminal transmembrane domain expressed in Escherichia coli XL-1 Blue cells preincubated for 10 mins followed by FITC-labeled Bid BH3 peptide addition measured after 20 mins by fluorescence polarization assay
[6] = target: T1, Induced myeloid leukemia cell differentiation protein Mcl-1; assay: Binding affinity to MCL1 (unknown origin) incubated for 30 mins by TR-FRET assay
[7] = target: Induced myeloid leukemia cell differentiation protein Mcl-1 homolog (Mus musculus, UniProt P97287); assay: Inhibition of biotinylated Bim BH3 peptide binding to recombinant GST-tagged mouse MCL1 with N-terminal truncation of 151 residues and C-terminal truncation of 23 residues expressed in Escherichia coli BL21(DE3) cells preincubated for 1 hr followed by biotinylated Bim BH3 peptide addition measured after 1 hr by ELISA
[8] = target: T2, Apoptosis regulator Bcl-2; assay: Inhibition of FITC-labeled Bim BH3 peptide binding to GST-tagged BCL2 (unknown origin) preincubated for 2 mins followed by FITC-labeled Bim BH3 peptide addition measured after 10 mins by fluorescence polarization assay
MEF [9] = assay: Induction of apoptosis in MEF assessed as dead cells at 10 uM after 24 hrs by Annexin V/propidium iodide staining based method relative to control; format: functional, Mus musculus
MEF [10] = assay: Induction of apoptosis in […] double knock out MEF assessed as dead cells at 10 uM after 24 hrs by Annexin V/propidium iodide staining based method relative to control; format: functional, Mus musculus
[11] = Inhibition of FITC-labeled Bid BH3 peptide binding to GST-tagged MCL1 harboring N-terminal and C-terminal point mutant (unknown origin) expressed in Escherichia coli Bl21(DE3) cells by fluorescence polarization assay; design: species or system Homo sapiens
[12] = target: T1, Induced myeloid leukemia cell differentiation protein Mcl-1; assay: Inhibition of 5-FAM-labeled Bid BH3 peptide binding to MCL1 (unknown origin) by fluorescence polarization assay
[13] = target: T1, Induced myeloid leukemia cell differentiation protein Mcl-1; assay: Inhibition of 5-FAM-labeled Bid BH3 peptide binding to MCL1 (unknown origin) at 50 uM by fluorescence polarization assay relative to control
[14] = target: T1, Induced myeloid leukemia cell differentiation protein Mcl-1; assay: Inhibition of biotinylated Bim BH3 peptide binding to GST-tagged MCL1 (unknown origin) preincubated for 15 mins followed by biotinylated Bim BH3 peptide addition measured after 2 hrs by ELISA
Bcl-2-like protein 1 = Bcl-2-like protein 1 (Homo sapiens, UniProt Q07817); assay: (§1) Inhibition of FAM-labeled Bim BH3 peptide binding to recombinant human N-terminal GST-tagged Bcl-XL (1 to 212 residues) expressed in Escherichia coli BL21(DE3) cells preincubated for 30 mins followed by FAM-labeled Bim BH3 peptide addition measured after 20 mins by fluorescence polarization assay
[15] = target: T2, Apoptosis regulator Bcl-2; assay: as §1, with “Bid” for “Bim”, “BCL2” for “Bcl-XL”, “34/ 92 to 207” for “212”, “residues) fused with human Bcl-XL” for “residues)”
[16] = as §1, with “Bid” for “Bim”, “recombinant N-terminal His8-tagged” for “recombinant”, “MCL1 (209” for “N-terminal GST-tagged Bcl-XL (1”, “327 residues)/mouse MCL1 (152 to189” for “212”

T2 sequence (P10415 whole entry, the tested form may be a part): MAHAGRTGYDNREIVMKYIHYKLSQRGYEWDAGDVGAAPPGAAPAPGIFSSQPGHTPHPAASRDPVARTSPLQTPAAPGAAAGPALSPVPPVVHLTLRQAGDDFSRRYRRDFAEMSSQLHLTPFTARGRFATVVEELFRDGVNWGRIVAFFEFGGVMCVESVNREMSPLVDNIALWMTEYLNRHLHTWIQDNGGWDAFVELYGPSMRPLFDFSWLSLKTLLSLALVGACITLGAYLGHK
T1 sequence (Q07820 whole entry): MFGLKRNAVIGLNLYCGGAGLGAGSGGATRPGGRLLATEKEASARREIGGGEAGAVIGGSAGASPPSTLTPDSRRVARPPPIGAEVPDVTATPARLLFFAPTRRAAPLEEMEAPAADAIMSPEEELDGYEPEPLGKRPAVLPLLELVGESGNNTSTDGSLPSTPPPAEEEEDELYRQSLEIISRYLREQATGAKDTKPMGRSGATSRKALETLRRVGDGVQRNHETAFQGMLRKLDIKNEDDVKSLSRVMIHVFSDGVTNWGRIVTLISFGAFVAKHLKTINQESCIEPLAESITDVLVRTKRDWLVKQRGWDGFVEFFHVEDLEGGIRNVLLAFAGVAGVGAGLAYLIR
Chain of Bcl-2-like protein 1 (Q07817 whole entry, the tested form may be a part): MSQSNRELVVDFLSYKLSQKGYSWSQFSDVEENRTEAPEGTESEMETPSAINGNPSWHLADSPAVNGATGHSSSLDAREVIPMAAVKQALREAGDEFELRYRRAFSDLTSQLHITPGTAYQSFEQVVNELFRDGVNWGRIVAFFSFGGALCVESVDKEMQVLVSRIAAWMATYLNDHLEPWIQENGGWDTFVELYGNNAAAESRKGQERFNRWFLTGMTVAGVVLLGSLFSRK
Chain of Induced myeloid leukemia cell differentiation protein Mcl-1 homolog (P97287 whole entry, the tested form may be a part): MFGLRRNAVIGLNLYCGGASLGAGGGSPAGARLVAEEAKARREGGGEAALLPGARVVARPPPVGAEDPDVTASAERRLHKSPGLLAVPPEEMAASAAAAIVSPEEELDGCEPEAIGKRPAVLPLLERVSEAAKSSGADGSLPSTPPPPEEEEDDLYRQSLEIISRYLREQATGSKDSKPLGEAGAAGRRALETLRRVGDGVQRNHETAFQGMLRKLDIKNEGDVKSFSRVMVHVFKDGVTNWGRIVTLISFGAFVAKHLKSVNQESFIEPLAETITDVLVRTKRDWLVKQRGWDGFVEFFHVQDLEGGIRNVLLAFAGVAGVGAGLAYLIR

CC(C)c1ccccc1Cc1cc(C(=O)Nc2ccc(S(=O)(=O)c3ccccc3C(C)(C)C)cc2)c(O)c(O)c1O
Ki [1]: < 300 nM | Ki [2]: < 300 nM

O=C(O)CSc1cc(NS(=O)(=O)c2ccc(Oc3ccc(F)cc3)cc2)c2ccccc2c1O
IC50 [3]: 170 nM

COC1=CC(c2cc3ccccc3[nH]2)=N/C1=C\c1[nH]c(C)cc1C [OBATOCLAX]
IC50 [4]: 2900 nM | IC50 [5]: 1110 nM

CC1(C)CCC(CN2CCN(c3ccc(C(=O)NS(=O)(=O)c4ccc(NCC5CCOCC5)c([N+](=O)[O-])c4)c(Oc4cnc5[nH]ccc5c4)c3)CC2)=C(c2ccc(Cl)cc2)C1 [VENETOCLAX]
Ki [6]: > 444 nM

O=C(c1ccccc1O)c1[nH]c(Cl)c(Cl)c1-n1c(C(=O)c2ccccc2O)cc(Cl)c1Cl
IC50 [7]: 10000 nM

O=C(O)CSc1cc(NS(=O)(=O)c2ccc(-c3ccc(F)cc3F)cc2)c2ccccc2c1O
IC50 [3]: 170 nM

O=C(O)CSc1cc(NS(=O)(=O)c2ccc(-c3ccc(Cl)cc3)cc2)c2ccccc2c1O
IC50 [3]: 170 nM

Cc1cc2c(C(C)C)c(O)c(O)cc2c(O)c1-c1c(C)cc2c(C(C)C)c(O)c(O)cc2c1O [APOGOSSYPOL]
Ki [8]: 2800 nM

O=C(O)CSc1cc(NS(=O)(=O)c2ccc(Br)cc2)c2ccccc2c1O
Ki [3]: 1870 nM | Activity (MEF [9]): 60% | Activity (MEF [10]): 16%

Cc1cs/c(=N\C2CCCCC2)n1/N=C/c1ccc(O)c(O)c1O
IC50 [11]: 4780 nM

O=C(Cc1cc(O)c(O)c(O)c1)NCc1ccc(C(=O)N2CCN(Cc3ccccc3-c3ccccc3)CC2)cc1
Ki [12]: 180 nM | inhibition [13]: 66%

O=C1c2ccc(OS(=O)(=O)C(F)(F)F)cc2Oc2c(Cl)cc(C(=O)c3ccccc3O)n2-c2c1[nH]c(Cl)c2Cl
IC50 [14]: 1400 nM

CCOC(=O)C1=C(C)N=c2s/c(=C\c3cn(Cc4ccc(-c5ccccc5)cc4)c4ccccc34)c(=O)n2C1c1ccccc1 (stereo not given)
Ki (Bcl-2-like protein 1): 17 nM | Ki [15]: 530 nM | Ki [16]: 200 nM
